Results: patent US10080757B2 (WISCONSIN ALUMNI RESEARCH FOUNDATION, priority 2016, dated 2018)
Like-named read-outs stand apart in the source and are kept apart here.

Legend:
C. elegans = C. elegans growth and proliferation; format: in vivo; settings: 250 μM; Table 8
recombinant MtbUGM = target: T1, recombinant MtbUGM (Mycobacterium tuberculosis, UniProt P9WIQ1); experiment: biochemical; settings: for inhibition at 100 µM: read-out: % inhib MtbUGM (100 μM); for inhibition at 50 µM: read-out: % inhib MtbUGM (50 μM); for inhibition at 10 µM: read-out: % inhib MtbUGM (10 μM)
T1 construct: made in house
T1 sequence (P9WIQ1 whole entry): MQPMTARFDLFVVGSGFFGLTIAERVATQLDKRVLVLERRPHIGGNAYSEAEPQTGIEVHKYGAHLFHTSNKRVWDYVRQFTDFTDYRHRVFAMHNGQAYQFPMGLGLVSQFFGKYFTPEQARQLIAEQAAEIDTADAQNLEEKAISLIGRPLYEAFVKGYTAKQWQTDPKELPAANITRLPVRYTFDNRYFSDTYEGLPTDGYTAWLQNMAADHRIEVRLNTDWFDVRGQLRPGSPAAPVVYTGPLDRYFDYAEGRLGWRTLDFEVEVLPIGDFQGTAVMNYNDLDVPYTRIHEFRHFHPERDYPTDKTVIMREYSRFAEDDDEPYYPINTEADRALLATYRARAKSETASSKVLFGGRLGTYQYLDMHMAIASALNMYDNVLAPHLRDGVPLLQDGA

Row | SMILES | inhibition at 100 µM (recombinant MtbUGM; 100 μM, mean of two replicates) [%] | inhibition at 50 µM (recombinant MtbUGM; 50 μM, mean of two replicates) [%] | also measured
1 | COC(=O)CC1Sc2nnc(Cc3ccc(Br)cc3)n2N=C1c1ccc(Cl)cc1 (centres unmarked) [Compound 14, Methyl-2-(3-(4-bromobenzyl)-6-(4-chlorophenyl)-7H-[1,2,4]triazolo[3,4-b][1,3,4]thiadiazin-7-yl)acetate] | 0 | – | Effective inhibitor of C. elegans growth at 250 μM (C. elegans): No
2 | O=C(O)CC1Sc2nnc(-c3cccs3)n2N=C1c1ccc(Cl)cc1 (centres unmarked) [Compound 15, 2-(6-(4-chlorophenyl)-3-(thiophen-2-yl)-7H-[1,2,4]triazolo[3,4-b][1,3,4]thiadiazin-7-yl)acetic acid] | 50 | – | –
3 | O=C(O)CC1Sc2nnc(Cc3ccc(Br)cc3)n2N=C1c1ccc(Cl)c(Cl)c1 (centres unmarked) [Compound 16, 2-(3-(4-bromobenzyl)-6-(3,4-dichlorophenyl)-7H-[1,2,4]triazolo[3,4-b][1,3,4]thiadiazin-7-yl)acetic acid] | 95 | 78 | –
4 | Cc1ccc(C2=Nn3c(Cc4ccc(Br)cc4)nnc3SC2CC(=O)O)cc1C (centres unmarked) [Compound 17, 2-(3-(4-bromobenzyl)-6-(3,4-dimethylphenyl)-7H-[1,2,4]triazolo[3,4-b][1,3,4]thiadiazin-7-yl)acetic acid] | 80 | 41 | –
5 | O=C(O)CC1Sc2nnc(-c3cccs3)n2N=C1c1ccc(Cl)c(Cl)c1 (centres unmarked) [Compound 18, 2-(6-(3,4-dichlorophenyl)-3-(thiophen-2-yl)-7H-[1,2,4]triazolo[3,4-b][1,3,4]thiadiazin-7-yl)acetic acid] | 80 | – | –
6 | O=C(O)CC1Sc2nnc(Cc3ccc(Br)cc3)n2N=C1c1ccc(Br)cc1 (centres unmarked) [Compound 19, 2-(3-(4-bromobenzyl)-6-(4-bromophenyl)-7H-[1,2,4]triazolo[3,4-b][1,3,4]thiadiazin-7-yl)acetic acid] | 90 | 67 | –
7 | O=C(O)CC1Sc2nnc(Cc3ccc(Br)cc3)n2N=C1c1ccc(C(F)(F)F)cc1 (centres unmarked) [Compound 20, 2-(3-(4-bromobenzyl)-6-(4-(trifluoromethyl)phenyl)-7H-[1,2,4]triazolo[3,4-b][1,3,4]thiadiazin-7-yl)acetic acid] | 57 | 11 | –
8 | Cc1ccc(C2=Nn3c(Cc4ccc(Br)cc4)nnc3SC2CC(=O)O)cc1 (centres unmarked) [Compound 21, 2-(3-(4-bromobenzyl)-6-(p-tolyl)-7H-[1,2,4]triazolo[3,4-b][1,3,4]thiadiazin-7-yl)acetic acid] | 63 | 32 | –
9 | COc1ccc(C2=Nn3c(Cc4ccc(Br)cc4)nnc3SC2CC(=O)O)cc1 (centres unmarked) [Compound 22, 2-(3-(4-bromobenzyl)-6-(4-methoxyphenyl)-7H-[1,2,4]triazolo[3,4-b][1,3,4]thiadiazin-7-yl)acetic acid] | 44 | 35 | –
10 | O=C(O)CC1Sc2nnc(Cc3ccc(Br)cc3)n2N=C1c1ccc(F)cc1 (centres unmarked) [Compound 23, 2-(3-(4-bromobenzyl)-6-(4-fluorophenyl)-7H-[1,2,4]triazolo[3,4-b][1,3,4]thiadiazin-7-yl)acetic acid] | 39 | 25 | –
11 | Cc1ccc(C2=Nn3c(Cc4ccc(Br)cc4)nnc3SC2CC(=O)O)c(C)c1 (centres unmarked) [Compound 24, 2-(3-(4-bromobenzyl)-6-(2,4-dimethylphenyl)-7H-[1,2,4]triazolo[3,4-b][1,3,4]thiadiazin-7-yl)acetic acid] | 0 | 1 | –
12 | O=C(O)CC1Sc2nnc(-c3ccc(Br)cc3)n2N=C1c1ccc(Cl)cc1 (centres unmarked) [Compound 26, 2-(3-(4-bromophenyl)-6-(4-chlorophenyl)-7H-[1,2,4]triazolo[3,4-b][1,3,4]thiadiazin-7-yl)acetic acid] | 41 | 23 | –
13 | O=C(O)CC1Sc2nnc(CCc3ccc(Br)cc3)n2N=C1c1ccc(Cl)cc1 (centres unmarked) [Compound 27, 2-(3-(4-bromophenethyl)-6-(4-chlorophenyl)-7H-[1,2,4]triazolo[3,4-b][1,3,4]thiadiazin-7-yl)acetic acid] | 69 | 48 | –
14 | O=C(O)CC1Sc2nnc(Cc3ccccc3)n2N=C1c1ccc(Cl)cc1 (centres unmarked) [Compound 28, 2-(3-benzyl-6-(4-chlorophenyl)-7H-[1,2,4]triazolo[3,4-b][1,3,4]thiadiazin-7-yl)acetic acid] | 43 | 30 | –
15 | O=C(O)CC1Sc2nnc(Cc3ccc(-c4ccccc4)cc3)n2N=C1c1ccc(Cl)cc1 (centres unmarked) [Compound 29, 2-(3-([1,1′-biphenyl]-4-ylmethyl)-6-(4-chlorophenyl)-7H-[1,2,4]triazolo[3,4-b][1,3,4]thiadiazin-7-yl)acetic acid] | 100 | 100 | –
16 | O=C(O)CC1Sc2nnc(Cc3ccc4ccccc4c3)n2N=C1c1ccc(Cl)cc1 (centres unmarked) [Compound 30, 2-(6-(4-chlorophenyl)-3-(naphthalen-2-ylmethyl)-7H-[1,2,4]triazolo[3,4-b][1,3,4]thiadiazin-7-yl)acetic acid] | 88 | 49 | –
17 | O=C(O)CC1Sc2nnc(Cc3ccc(-c4ccccc4)cc3)n2N=C1c1ccc(Cl)c(Cl)c1 (centres unmarked) [Compound 31, 2-(3-([1,1′-biphenyl]-4-ylmethyl)-6-(3,4-dichlorophenyl)-7H-[1,2,4]triazolo[3,4-b][1,3,4]thiadiazin-7-yl)acetic acid] | 100 | 100 | inhibition at 10 µM (recombinant MtbUGM; 10 μM, mean of two replicates): 50%
18 | COC(=O)CC1Sc2nnc(-c3cccs3)n2N=C1c1ccc(Cl)cc1 (centres unmarked) [Compound 32, Methyl-2-(6-(4-chlorophenyl)-3-(thiophen-2-yl)-7H-[1,2,4]triazolo[3,4-b][1,3,4]thiadiazin-7-yl)acetate] | 20 | – | –
19 | C=CCNC(=O)CC1Sc2nnc(-c3cccs3)n2N=C1c1ccc(Cl)cc1 (centres unmarked) [Compound 34, N-allyl-2-(6-(4-chlorophenyl)-3-(thiophen-2-yl)-7H-[1,2,4]triazolo[3,4-b][1,3,4]thiadiazin-7-yl)acetamide] | 0 | – | –
20 | C=CCNC(=O)CC1Sc2nnc(Cc3ccc(Br)cc3)n2N=C1c1ccc(Cl)cc1 (centres unmarked) [Compound 35, N-allyl-2-(3-(4-bromobenzyl)-6-(4-chlorophenyl)-7H-[1,2,4]triazolo[3,4-b][1,3,4]thiadiazin-7-yl)acetamide] | 0 | – | –
21 | O=C(CC1Sc2nnc(Cc3ccc(Br)cc3)n2N=C1c1ccc(Cl)cc1)NS(=O)(=O)c1cccs1 (centres unmarked) [Compound 36] | – | – | inhibition at 10 µM (recombinant MtbUGM): 18%; inhibition at 50 µM (recombinant MtbUGM): 87%; inhibition at 100 µM (recombinant MtbUGM): 100%
22 | O=C(CC1Sc2nnc(Cc3ccc(Br)cc3)n2N=C1c1ccc(Cl)cc1)NS(=O)(=O)c1ccc(Cl)s1 (centres unmarked) [Compound 37] | – | – | inhibition at 10 µM (recombinant MtbUGM): 35%; inhibition at 50 µM (recombinant MtbUGM): 100%; inhibition at 100 µM (recombinant MtbUGM): 100%
23 | Cn1cnc(S(=O)(=O)NC(=O)CC2Sc3nnc(Cc4ccc(Br)cc4)n3N=C2c2ccc(Cl)cc2)c1 (centres unmarked) [Compound 38] | – | – | inhibition at 50 µM (recombinant MtbUGM): 36%; inhibition at 100 µM (recombinant MtbUGM): 68%
24 | O=C(CC1Sc2nnc(Cc3ccc(Br)cc3)n2N=C1c1ccc(Cl)c(Cl)c1)NS(=O)(=O)c1ccccc1 (centres unmarked) [Compound 39] | – | – | inhibition at 10 µM (recombinant MtbUGM): 51%; inhibition at 50 µM (recombinant MtbUGM): 100%; inhibition at 100 µM (recombinant MtbUGM): 100%
25 | O=C(CC1Sc2nnc(Cc3ccc(-c4ccccc4)cc3)n2N=C1c1ccc(Cl)c(Cl)c1)NS(=O)(=O)c1ccccc1 (centres unmarked) [Compound 40] | – | – | inhibition at 10 µM (recombinant MtbUGM): 85%; inhibition at 50 µM (recombinant MtbUGM): 100%; inhibition at 100 µM (recombinant MtbUGM): 100%
